The record followed here is article PMC12039745, “Structure and inhibition of diaminopimelic acid epimerase by slow‐binding α‐methyl amino acids” (Protein Science : A Publication of the Protein Society, 2025).

For orientation: IC50 means the concentration that gives 50% inhibition. As usually defined, the Km is the concentration of substrate that gives half-maximal velocity.

Data set [1] concerns the target T1, DAP epimerase (DapF).
T1 construct: C-terminal hexahistidine tag
Kind of data set: X-ray crystal structure ([…] Å); DAP dehydrogenase-coupled inhibition assay after […] h incubation. The data set is classed as biochemical, Anabaena sp. YBS01.

Data set [2] has as its target T2, DAP epimerase (DapF) (Arabidopsis thaliana, UniProt Q9LFG2).
T2 sequence (Q9LFG2 52-362): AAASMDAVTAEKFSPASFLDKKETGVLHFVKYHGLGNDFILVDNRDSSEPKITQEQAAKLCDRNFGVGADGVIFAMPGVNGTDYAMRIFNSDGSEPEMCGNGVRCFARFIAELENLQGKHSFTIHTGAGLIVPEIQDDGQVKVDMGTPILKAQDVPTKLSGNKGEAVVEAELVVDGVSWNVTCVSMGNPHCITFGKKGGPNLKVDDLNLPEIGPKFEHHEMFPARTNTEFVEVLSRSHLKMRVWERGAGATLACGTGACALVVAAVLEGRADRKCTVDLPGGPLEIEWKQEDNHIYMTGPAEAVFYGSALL
Description: DAP dehydrogenase-coupled assay at […] inhibitor, time-dependent pre-incubation. The data set is classed as biochemical.

The target of data set [3] is T1, DAP epimerase (DapF). Kind of data set: DAP dehydrogenase-coupled assay, […] h pre-incubation, slow-binding. The data set is classed as biochemical, Anabaena sp. YBS01.
Substrate in data set [4]: N[C@@H](CCC[C@H](N)C(=O)O)C(=O)O
Kind of data set: purified protein.

`C[C@@](N)(CCC[C@H](N)C(=O)O)C(=O)O` [D,L-α-methylDAP, (2R,6S)‐2,6‐diamino‐2‐methylheptanedioic acid] displayed an IC50 in data set [1] of 160 µM. The “DAP dehydrogenase-coupled assay at 250 μM inhibitor, time-dependent pre-incubati” value in data set [2] was “A. thaliana DapF behaved similarly to Anabaena DapF and activity decreased with increasing length of pre‐incubation”.
Turning to `C[C@](N)(CCC[C@H](N)C(=O)O)C(=O)O` [L,L-α-methylDAP], in data set [2], the “DAP dehydrogenase-coupled assay at 250 μM inhibitor, time-dependent pre-incubati” value is “A. thaliana DapF behaved similarly to Anabaena DapF and activity decreased with increasing length of pre‐incubation”. The same molecule gave an IC50 in data set [3] of 120 µM.

B1: DAP epimerase (DapF) (Arabidopsis thaliana) (protein)
chain: AAASMDAVTAEKFSPASFLDKKETGVLHFVKYHGLGNDFILVDNRDSSEPKITQEQAAKLCDRNFGVGADGVIFAMPGVNGTDYAMRIFNSDGSEPEMCGNGVRCFARFIAELENLQGKHSFTIHTGAGLIVPEIQDDGQVKVDMGTPILKAQDVPTKLSGNKGEAVVEAELVVDGVSWNVTCVSMGNPHCITFGKKGGPNLKVDDLNLPEIGPKFEHHEMFPARTNTEFVEVLSRSHLKMRVWERGAGATLACGTGACALVVAAVLEGRADRKCTVDLPGGPLEIEWKQEDNHIYMTGPAEAVFYGSALL
B1: the Km in data set [4] was determined as 68 µM.
